Measured values published in publication PMC3131558, “Plitidepsin Has a Safe Cardiac Profile: A Comprehensive Analysis” (Marine Drugs, 2011).

Key:
[1] = test system: adult patients with advanced solid tumors or hematological malignancies; test: Cardiac adverse events (CAEs) in phase I/II clinical trials of single-agent plitidepsin; type: in vivo, human; details: for CAE group: Miscellaneous Cardiac Adverse Events / CAE group: Myocardial Injury / CAE group: Rhythm Abnormalities / CAE subgroup: Irregular Supraventricular Tachycardia / CAE subgroup: Other Myocardial Injury / CAE subgroup: Other Rhythm Abnormalities / CAE subgroup: Possible Ischemic Related / CAE subgroup: Regular Supraventricular Tachycardia / CAE: Acute myocardial infarction / CAE: Arrhythmia / CAE: Atrial fibrillation / CAE: Atrial flutter / CAE: Atrioventricular block / CAE: Cardiac amyloidosis / CAE: Cardiac failure / CAE: Cardiac troponin I increased / CAE: Cardiomegaly / CAE: Cardiomyopathy / CAE: Change in electrocardiogram / CAE: Chest pain / CAE: Ejection fraction decreased / CAE: Electrocardiogram QT prolonged / CAE: Electrocardiogram ST-T change / CAE: Heart rate irregular / CAE: Hypertension / CAE: Hypotension / CAE: Myocardial ischemia / CAE: Palpitations / CAE: Pericardial effusion / CAE: Sinus tachycardia / CAE: Supraventricular arrhythmia / CAE: Supraventricular tachycardia / CAE: Tachycardia / CAE: Ventricular hypokinesia / Total Adverse Events (cardiac): regardless of relationship
Source text: Clinical trials included in this cardiac safety analysis were 4 phase I and 14 phase II studies evaluating plitidepsin as single-agent chemotherapy in a total of 578 adult patients (see details in Table 1). All available information on CAEs was retrieved from Pharma Mar’s internal Pharmacovigilance and Clinical Trials databases. The reviewed sources of information were Case Report Forms (CRFs), serious adverse event (SAE) reports, follow-up reports and supplementary reports attached or requested. Median follow-up was 12.0 months (95% CI, 7.6–13.8) for phase I trials and 12.3 months for phase II trials (95% CI, 11.0–13.7). Cutoff for data analysis was 20 November 2008.
All adverse events (AEs) with preferred terms of the Medical Dictionary for Regulatory Activities (MedDRA) that could be potentially classified as cardiac were evaluated. Additionally, events included in other systems as well in those patients with any vascular risk associated (prior history or within the trial) were also reviewed. Laboratory data were also reviewed in those cases with grade 3/4 creatine phosphokinase increase and/or troponin ([…] or troponin I) elevations. Patients’ prior history and baseline information were searched for any associated vascular risk (diabetes, hypercholesterolemia, hypertension, smoking, prior myocardial infarction or angina, etc.). All events retrieved using the aforementioned criteria were reviewed to identify and exclude from analysis potential CAEs due to obvious cancer-related symptoms (e.g., sinusal tachycardia in anemic patients, chest pain obviously related to tumor involvement of the chest). […] The information obtained was tabulated and a descriptive analysis is reported here.

[2] = test system: adult patients with advanced solid tumors or hematological malignancies; test: Multivariate logistic regression of variables associated with CAEs; type: in vivo, human; details: overall multivariate analysis
Source text: To avoid potential bias, candidate variables were explored by univariate analysis regardless of the relationship attributed to the CAE with plitidepsin by the investigators (related, unrelated or unknown). Univariate logistic regression was used to study the relationship between the occurrence of a CAE and categorical and continuous patient and disease characteristics, and other observed toxicities or laboratory abnormalities. Those variables found to be clinically relevant and/or statistically significant (or of borderline significance) in this analysis were further assessed as covariates in a multivariate analysis using logistic regression with stepwise variable selection and multiple correspondence analysis methods.

HERG = details: preclinical, in vitro; cited from earlier work
Source text: (§1) Plitidepsin, a cyclic depsipeptide of marine origin, is an investigational drug currently in clinical development as a single agent as well as in combination with other anticancer agents for the treatment of different solid tumors and hematological malignancies. […] CAE ...

Purkinje fibers = details: preclinical, in vitro; cited from earlier work
Source text: as §1

dog = details: preclinical; cited from earlier work
Source text: as §1

[3] = test system: guinea pig Langendorff preparation; details: exploratory study; cited from earlier work
Source text: as §1

[4] = test system: human malignant cell lines; details: in vitro and in vivo, at nanomolar concentration ranges; cited from earlier work
Source text: Aplidin® (plitidepsin) is a cyclic depsipeptide originally isolated from the Mediterranean tunicate Aplidium albicans and currently produced by chemical synthesis. Plitidepsin has been proven to be active against several human malignant cell lines both in vitro and in vivo at nanomolar concentration ranges.

With plitidepsin the “CAE group: Miscellaneous Cardiac Adverse Events” value ([1]; All studies (n = 578)) was 6 (1.0%) Patients (%), the “CAE group: Myocardial Injury” value ([1]; All studies (n = 578)) was 17 (3.0%) Patients (%) and the “CAE group: Rhythm Abnormalities” value ([1]; All studies (n = 578)) was 31 (5.4%) Patients (%). For the same substance, the “CAE subgroup: Irregular Supraventricular Tachycardia” value ([1]; All studies (n = 578)) was 15 (2.6%) Patients (%), the “CAE subgroup: Other Myocardial Injury” value ([1]; All studies (n = 578)) was 7 (1.2%) Patients (%) and the “CAE subgroup: Other Rhythm Abnormalities” value ([1]; All studies (n = 578)) was 13 (2.2%) Patients (%). The “CAE subgroup: Possible Ischemic Related” value ([1]; All studies (n = 578)) was 10 (1.7%) Patients (%), the “CAE subgroup: Regular Supraventricular Tachycardia” value ([1]; All studies (n = 578)) was 6 (1.0%) Patients (%) and the “CAE: Acute myocardial infarction” value ([1]; All studies (n = 578)) was 1 (0.2%) Patients (%). The “CAE: Arrhythmia” value ([1]; All studies (n = 578)) was 1 (0.2%) Patients (%), the “CAE: Atrial fibrillation” value ([1]; All studies (n = 578)) was 11 (1.9%) Patients (%) and the “CAE: Atrial flutter” value ([1]; All studies (n = 578)) was 5 (0.9%) Patients (%). For the same substance, the “CAE: Atrioventricular block” value ([1]; All studies (n = 578)) was 1 (0.2%) Patients (%), the “CAE: Cardiac amyloidosis” value ([1]; All studies (n = 578)) was 1 (0.2%) Patients (%) and the “CAE: Cardiac failure” value ([1]; All studies (n = 578)) was 3 (0.5%) Patients (%). The “CAE: Cardiac troponin I increased” value ([1]; All studies (n = 578)) was 1 (0.2%) Patients (%), the “CAE: Cardiomegaly” value ([1]; All studies (n = 578)) was 1 (0.2%) Patients (%) and the “CAE: Cardiomyopathy” value ([1]; All studies (n = 578)) was 2 (0.3%) Patients (%). For the same substance, the “CAE: Change in electrocardiogram” value ([1]; All studies (n = 578)) was 1 (0.2%) Patients (%), the “CAE: Chest pain” value ([1]; All studies (n = 578)) was 4 (0.7%) Patients (%) and the “CAE: Ejection fraction decreased” value ([1]; All studies (n = 578)) was 1 (0.2%) Patients (%). For the same substance, the “CAE: Electrocardiogram QT prolonged” value ([1]; All studies (n = 578)) was 5 (0.9%) Patients (%), the “CAE: Electrocardiogram ST-T change” value ([1]; All studies (n = 578)) was 1 (0.2%) Patients (%) and the “CAE: Heart rate irregular” value ([1]; All studies (n = 578)) was 1 (0.2%) Patients (%). For the same substance, the “CAE: Hypertension” value ([1]; All studies (n = 578)) was 1 (0.2%) Patients (%), the “CAE: Hypotension” value ([1]; All studies (n = 578)) was 2 (0.3%) Patients (%) and the “CAE: Myocardial ischemia” value ([1]; All studies (n = 578)) was 3 (0.5%) Patients (%). The “CAE: Palpitations” value ([1]; All studies (n = 578)) was 6 (1.0%) Patients (%), the “CAE: Pericardial effusion” value ([1]; All studies (n = 578)) was 3 (0.5%) Patients (%) and the “CAE: Sinus tachycardia” value ([1]; All studies (n = 578)) was 1 (0.2%) Patients (%). The “CAE: Supraventricular arrhythmia” value ([1]; All studies (n = 578)) was 1 (0.2%) Patients (%), the “CAE: Supraventricular tachycardia” value ([1]; All studies (n = 578)) was 1 (0.2%) Patients (%) and the “CAE: Tachycardia” value ([1]; All studies (n = 578)) was 3 (0.5%) Patients (%). For the same substance, the “CAE: Ventricular hypokinesia” value ([1]; All studies (n = 578)) was 1 (0.2%) Patients (%), the “Total Adverse Events (cardiac)” value ([1]; All studies (n = 578)) was 46 (8.0%) Patients (%) and the “CAE group: Miscellaneous Cardiac Adverse Events” value ([1]; Phase II studies (n = 364)) was 3 (0.8%) Patients (%). For the same substance, the “CAE group: Myocardial Injury” value ([1]; Phase II studies (n = 364)) was 14 (3.8%) Patients (%), the “CAE group: Rhythm Abnormalities” value ([1]; Phase II studies (n = 364)) was 25 (6.9%) Patients (%) and the “CAE subgroup: Irregular Supraventricular Tachycardia” value ([1]; Phase II studies (n = 364)) was 14 (3.8%) Patients (%). For the same substance, the “CAE subgroup: Other Myocardial Injury” value ([1]; Phase II studies (n = 364)) was 6 (1.6%) Patients (%), the “CAE subgroup: Other Rhythm Abnormalities” value ([1]; Phase II studies (n = 364)) was 13 (3.6%) Patients (%) and the “CAE subgroup: Possible Ischemic Related” value ([1]; Phase II studies (n = 364)) was 8 (2.2%) Patients (%). For the same substance, the “CAE subgroup: Regular Supraventricular Tachycardia” value ([1]; Phase II studies (n = 364)) was 1 (0.3%) Patients (%), the “CAE: Acute myocardial infarction” value ([1]; Phase II studies (n = 364)) was 1 (0.3%) Patients (%) and the “CAE: Arrhythmia” value ([1]; Phase II studies (n = 364)) was 1 (0.3%) Patients (%). The “CAE: Atrial fibrillation” value ([1]; Phase II studies (n = 364)) was 10 (2.7%) Patients (%), the “CAE: Atrial flutter” value ([1]; Phase II studies (n = 364)) was 5 (1.4%) Patients (%) and the “CAE: Atrioventricular block” value ([1]; Phase II studies (n = 364)) was 1 (0.3%) Patients (%). The “CAE: Cardiac amyloidosis” value ([1]; Phase II studies (n = 364)) was 1 (0.3%) Patients (%), the “CAE: Cardiac failure” value ([1]; Phase II studies (n = 364)) was 2 (0.5%) Patients (%) and the “CAE: Cardiac troponin I increased” value ([1]; Phase II studies (n = 364)) was 1 (0.3%) Patients (%). For the same substance, the “CAE: Cardiomegaly” value ([1]; Phase II studies (n = 364)) was 1 (0.3%) Patients (%), the “CAE: Cardiomyopathy” value ([1]; Phase II studies (n = 364)) was 2 (0.5%) Patients (%) and the “CAE: Change in electrocardiogram” value ([1]; Phase II studies (n = 364)) was 1 (0.3%) Patients (%). For the same substance, the “CAE: Chest pain” value ([1]; Phase II studies (n = 364)) was 2 (0.5%) Patients (%), the “CAE: Ejection fraction decreased” value ([1]; Phase II studies (n = 364)) was 1 (0.3%) Patients (%) and the “CAE: Electrocardiogram QT prolonged” value ([1]; Phase II studies (n = 364)) was 5 (1.4%) Patients (%). The “CAE: Electrocardiogram ST-T change” value ([1]; Phase II studies (n = 364)) was 1 (0.3%) Patients (%), the “CAE: Heart rate irregular” value ([1]; Phase II studies (n = 364)) was 1 (0.3%) Patients (%) and the “CAE: Hypertension” value ([1]; Phase II studies (n = 364)) was 0 (0.0%) Patients (%). For the same substance, the “CAE: Hypotension” value ([1]; Phase II studies (n = 364)) was 2 (0.5%) Patients (%), the “CAE: Myocardial ischemia” value ([1]; Phase II studies (n = 364)) was 3 (0.8%) Patients (%) and the “CAE: Palpitations” value ([1]; Phase II studies (n = 364)) was 6 (1.6%) Patients (%). The “CAE: Pericardial effusion” value ([1]; Phase II studies (n = 364)) was 1 (0.3%) Patients (%), the “CAE: Sinus tachycardia” value ([1]; Phase II studies (n = 364)) was 1 (0.3%) Patients (%) and the “CAE: Supraventricular arrhythmia” value ([1]; Phase II studies (n = 364)) was 0 (0.0%) Patients (%). For the same substance, the “CAE: Supraventricular tachycardia” value ([1]; Phase II studies (n = 364)) was 0 (0.0%) Patients (%), the “CAE: Tachycardia” value ([1]; Phase II studies (n = 364)) was 0 (0.0%) Patients (%) and the “CAE: Ventricular hypokinesia” value ([1]; Phase II studies (n = 364)) was 1 (0.3%) Patients (%). For the same substance, the “Total Adverse Events (cardiac)” value ([1]; Phase II studies (n = 364)) was 37 (10.2%) Patients (%), the “Plitidepsin-related CAEs: chest pain” value ([1]; of 15 related CAEs) was 2 n and the “Plitidepsin-related CAEs: palpitations” value ([1]; of 15 related CAEs) was 4 n. The “Patients with a CAE who had a fatal outcome as a direct consequence” value ([1]; related, unrelated or unknown CAEs) was “None”, the “Potentially life-threatening arrhythmias (e.g., ventricular arrhythmias)” value ([1]; within plitidepsin trials) was “did not occur” and the “OR for CAE: Tumor type, Prostate or pancreatic cancer” value ([2]; p = 0.0017) was 4.217. The “OR for CAE: Cardiac risk and relevant concomitant medication at baseline, Presence” value ([2]; p = 0.0072) was 3.034, the “OR for CAE: Hypokalemia (worst per patient), Grade ≥ 2” value ([2]; p = 0.0095) was 3.851 and the “OR for CAE: Myalgia (at baseline), Presence” value ([2]; p = 0.0140) was 5.015. The “OR for CAE: Hemoglobin (worst per patient), <10 g/dL” value ([2]; p = 0.0208) was 2.195, the “Cardiotoxic profile in HERG assay” value (HERG) was “did not show a cardiotoxic profile” and the “Cardiotoxic profile in study using Purkinje fibers” value (Purkinje fibers) was “did not show a cardiotoxic profile”. The “Cardiotoxic profile in in vivo study in the dog” value (dog) was “did not show a cardiotoxic profile”, the “Cardiac effects of escalating doses in guinea pig Langendorff preparation” value [3] was “did not show a cardiotoxic profile” and the “Activity against several human malignant cell lines” value [4] was “active”.
